One experiment concerns A375 cells. Kind of experiment: Inhibition of cancer cell growth, MTT assay, A375. As to conditions: Homo sapiens, A-375, 72 h exposure. The format is cell-based. A digest of the protocol:
(§1)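 Cells grown in RPMI 1640 with 10% FBS were seeded at about 4000 cells/well, left 24 h, then exposed to compound for 72 h (1% DMSO final). MTT absorbance at 570 nm was compared with viable cells at time of addition to give growth inhibition; IC50 from concentration–inhibition plots, triplicates.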

The next experiment deals with BRAF (Homo sapiens (Human), UniProt P15056). Briefly: Z′-LYTE kinase inhibition assay (Invitrogen), BRAF. The format is biochemical. As to conditions: 1 μM compound, Z′-LYTE method; read-out: % inhibition at 1 μM against BRAF. On the procedure:
Inhibitory activities Inhibitory activities of compounds against BRAF, and BRAF V600E were measured by Invitrogen using Z′-LYTE® Method as briefly described in the following. 4× Test compounds are dissolved in 1% DMSO. […] ATP solutions are diluted to a 4×ATP working concentration in Kinase Buffer (50 mM HEPES pH 7.5, 0.01% BRIJ-35, 10 mM MgCl2, 1 mM EGTA). Reaction started by 30-second shaking of mixture consisting of 2.5 μL 4× test compound, […] and 2.5 μL 4×ATP Solution on Bar-coded Corning, low volume NBS, black 384-well plate (Corning Cat. #3676). Then the mixture was incubated for 60-minute at room temperature for the kinase reaction, followed by addition of 5 μL of a 1:1024 dilution of development reagent A and 30-second plate shake. The mixture was then incubated for another 60-minute at room temperature for development reaction. Fluorescence was read by plate reader. IC50 was calculated by plotting the concentration of compound vs the percentage of inhibition in treated wells using GraphPad Prism 5.

The next experiment concerns A549 cells. Kind of experiment: Inhibition of cancer cell growth, MTT assay, A549. The format is cell-based. The note with it: Homo sapiens, A549, 72 h exposure. A digest of the protocol:
as §1

A further experiment deals with BRAF V600E (Homo sapiens (Human), UniProt P15056, V600E). Briefly: Z′-LYTE kinase inhibition assay (Invitrogen), BRAF V600E. The format is biochemical. As to conditions: Z′-LYTE method; for inhibition at 1 µM: 1 μM compound, read-out: % inhibition at 1 μM against BRAF V600E; for IC50: read-out: IC50 against BRAF V600E. In short, it runs like this:
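FRET-based Z′-LYTE peptide phosphorylation format in 50 mM HEPES pH 7.5, 0.01% BRIJ-35, 10 mM MgCl2, 1 mM EGTA with ATP. Kinase reaction 60 min at room temperature, then protease development step 60 min at room temperature before fluorescence read. IC50 from compound concentration versus percent inhibition.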

A further experiment addresses KDR (VEGFR2) (Homo sapiens (Human), UniProt P35968). Kind of experiment: Z′-LYTE kinase inhibition assay (Invitrogen), KDR. The format is biochemical. As to conditions: Z′-LYTE method; for inhibition at 1 µM: 1 μM compound, read-out: % inhibition at 1 μM against KDR; for IC50: read-out: IC50 against KDR. A digest of the protocol: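 Z′-LYTE FRET assay: 10 μL reactions with 0.5–11.7 ng KDR and 2 μM Tyr 01 peptide in 50 mM HEPES pH 7.5, 10 mM MgCl2, 1 mM EGTA, 0.01% BRIJ-35, 1 h at room temperature. Development Reagent B (1:256) added for 60 min, fluorescence read; IC50 from concentration–inhibition curves.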

Sequence of BRAF V600E (P15056 whole entry V600E): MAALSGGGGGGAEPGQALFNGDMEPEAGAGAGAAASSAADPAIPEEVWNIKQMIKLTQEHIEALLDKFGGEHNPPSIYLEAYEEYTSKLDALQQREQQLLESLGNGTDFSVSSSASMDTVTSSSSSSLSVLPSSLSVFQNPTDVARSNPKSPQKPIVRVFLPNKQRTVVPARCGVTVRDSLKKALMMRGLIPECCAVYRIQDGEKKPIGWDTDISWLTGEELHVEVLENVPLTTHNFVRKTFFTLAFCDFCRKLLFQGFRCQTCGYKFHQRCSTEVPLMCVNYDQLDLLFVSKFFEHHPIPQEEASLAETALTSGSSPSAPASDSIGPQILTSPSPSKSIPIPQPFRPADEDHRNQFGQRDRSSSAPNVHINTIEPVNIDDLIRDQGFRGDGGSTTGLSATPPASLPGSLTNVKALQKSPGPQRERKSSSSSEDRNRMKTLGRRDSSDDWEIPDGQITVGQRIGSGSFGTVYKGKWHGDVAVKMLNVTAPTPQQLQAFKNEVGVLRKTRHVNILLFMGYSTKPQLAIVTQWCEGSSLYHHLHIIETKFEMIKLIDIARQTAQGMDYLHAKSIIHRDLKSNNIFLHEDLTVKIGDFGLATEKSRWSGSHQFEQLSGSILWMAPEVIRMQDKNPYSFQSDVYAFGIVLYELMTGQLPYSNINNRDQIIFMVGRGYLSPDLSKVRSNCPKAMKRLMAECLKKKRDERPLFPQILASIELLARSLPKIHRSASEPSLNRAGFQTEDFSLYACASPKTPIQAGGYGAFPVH
Sequence of KDR (VEGFR2) (P35968 20-1356): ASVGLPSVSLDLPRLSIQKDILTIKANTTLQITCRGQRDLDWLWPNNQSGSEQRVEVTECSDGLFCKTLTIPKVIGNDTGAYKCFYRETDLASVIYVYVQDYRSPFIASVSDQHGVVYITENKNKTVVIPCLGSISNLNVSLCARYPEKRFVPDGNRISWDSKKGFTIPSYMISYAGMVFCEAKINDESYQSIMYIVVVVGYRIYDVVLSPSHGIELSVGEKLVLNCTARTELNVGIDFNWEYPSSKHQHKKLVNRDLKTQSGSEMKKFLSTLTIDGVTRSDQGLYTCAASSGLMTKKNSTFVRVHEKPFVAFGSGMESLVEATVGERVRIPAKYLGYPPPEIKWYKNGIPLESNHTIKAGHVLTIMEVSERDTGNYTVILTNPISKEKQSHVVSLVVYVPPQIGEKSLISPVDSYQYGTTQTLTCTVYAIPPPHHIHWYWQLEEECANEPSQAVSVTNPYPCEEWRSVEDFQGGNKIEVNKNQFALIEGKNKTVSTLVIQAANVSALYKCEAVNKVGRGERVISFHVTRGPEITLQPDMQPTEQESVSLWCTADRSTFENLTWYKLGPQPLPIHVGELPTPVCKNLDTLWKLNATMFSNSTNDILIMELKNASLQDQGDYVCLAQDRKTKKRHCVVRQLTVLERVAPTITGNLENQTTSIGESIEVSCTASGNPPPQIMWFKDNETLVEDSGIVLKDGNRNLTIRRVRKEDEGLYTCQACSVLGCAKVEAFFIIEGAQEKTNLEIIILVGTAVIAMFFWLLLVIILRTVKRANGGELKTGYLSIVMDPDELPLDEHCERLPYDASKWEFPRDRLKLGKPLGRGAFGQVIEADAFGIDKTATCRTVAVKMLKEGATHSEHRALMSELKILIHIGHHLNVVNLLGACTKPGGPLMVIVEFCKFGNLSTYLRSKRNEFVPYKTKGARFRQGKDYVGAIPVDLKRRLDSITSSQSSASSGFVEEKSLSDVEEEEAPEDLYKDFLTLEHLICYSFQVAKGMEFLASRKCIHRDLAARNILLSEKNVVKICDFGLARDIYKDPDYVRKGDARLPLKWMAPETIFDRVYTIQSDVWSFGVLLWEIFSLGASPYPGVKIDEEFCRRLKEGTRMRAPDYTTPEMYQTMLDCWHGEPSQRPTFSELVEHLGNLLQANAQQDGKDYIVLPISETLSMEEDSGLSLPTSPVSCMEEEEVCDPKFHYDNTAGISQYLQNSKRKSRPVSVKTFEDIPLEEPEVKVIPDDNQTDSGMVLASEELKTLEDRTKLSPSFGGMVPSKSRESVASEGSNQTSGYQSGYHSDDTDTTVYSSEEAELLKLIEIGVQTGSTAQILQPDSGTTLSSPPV
Sequence of BRAF (P15056 whole entry): as the sequence (P15056 whole entry V600E) above, with E600V counted along it

For the compound `O=C(Nc1cccc(C(=O)c2ccc3nccnc3c2)c1)Nc1cccc(C(F)(F)F)c1` [Compound C009, 1-(3-(quinoxaline-6-carbonyl)phenyl)-3-(3-(trifluoromethyl)phenyl)urea], the IC50 was over 5000 nM in the experiment with A375 cells, 2000 to 5000 nM in the experiment on A549 cells, under 100 nM on BRAF V600E and under 100 nM on KDR (VEGFR2). In addition, the inhibition at 1 µM is 70 to 89% at BRAF, 70 to 89% at BRAF V600E and over 89% on KDR (VEGFR2).

On to `O=C(Nc1cccc(C(F)(F)F)c1)Nc1ccc(F)c(C(=O)c2ccc3nccnc3c2)c1` [Compound C014, 1-(4-fluoro-3-(quinoxaline-6-carbonyl)phenyl)-3-(3-(trifluoromethyl)phenyl)urea], for which the IC50 with A375 cells was under 1000 nM; with A549 cells, under 2000 nM; at BRAF V600E, under 100 nM; on KDR (VEGFR2) it was under 100 nM. The inhibition at 1 µM is under 70% at BRAF, over 89% at BRAF V600E and 70 to 89% at KDR (VEGFR2).

Regarding `O=C(Nc1ccc(F)c(C(=O)c2ccc3nccnc3c2)c1)Nc1ccc(Cl)c(C(F)(F)F)c1` [Compound C015, 1-(4-chloro-3-(trifluoromethyl)phenyl)-3-(4-fluoro-3-(quinoxaline-6-carbonyl)phenyl)urea], the IC50 was under 1000 nM in the experiment with A375 cells, under 2000 nM with A549 cells, under 100 nM at BRAF V600E and under 100 nM on KDR (VEGFR2). The inhibition at 1 µM on BRAF was under 70%; at BRAF V600E it was over 89%; on KDR (VEGFR2) it was over 89%.

With `O=C(Nc1cccc(C(=O)c2ccc3ncc(N4CCOCC4)nc3c2)c1)Nc1cccc(C(F)(F)F)c1` [Compound C017, 1-(3-(3-morpholinoquinoxaline-6-carbonyl)phenyl)-3-(3-(trifluoromethyl)phenyl)urea], the IC50 with A375 cells was under 1000 nM; in the experiment on A549 cells, under 2000 nM; at BRAF V600E, under 100 nM; at KDR (VEGFR2), under 100 nM. The inhibition at 1 µM was 70 to 89% at BRAF, over 89% on BRAF V600E and over 89% on KDR (VEGFR2).

In the case of `O=C(Nc1cccc(C(=O)c2ccc3ncc(N4CCOCC4)nc3c2)c1)Nc1ccc(Cl)c(C(F)(F)F)c1` [Compound C018, 1-(4-chloro-3-(trifluoromethyl)phenyl)-3-(3-(3-morpholinoquinoxaline-6-carbonyl)phenyl)urea], the IC50 in the experiment on A375 cells is under 1000 nM; with A549 cells it was under 2000 nM; on BRAF V600E, under 100 nM; at KDR (VEGFR2), under 100 nM. The results for the inhibition at 1 µM at BRAF, on BRAF V600E and on KDR (VEGFR2) were 70 to 89%, over 89% and over 89%, respectively.

Turning to `O=C(Nc1cccc(C(=O)c2ccc3ncc(N4CCCC4)nc3c2)c1)Nc1cccc(C(F)(F)F)c1` [Compound C020, 1-(3-(3-(pyrrolidin-1-yl)quinoxaline-6-carbonyl)phenyl)-3-(3-(trifluoromethyl)phenyl)urea], the values for the IC50 in the experiment on A375 cells and in the experiment with A549 cells were 1000 to 5000 nM and over 5000 nM, respectively. For the same compound, the inhibition at 1 µM on BRAF was 70 to 89%; on BRAF V600E it was over 89%; at KDR (VEGFR2), over 89%.

As to `O=C(Nc1cccc(C(=O)c2ccc3ncc(-c4cccnc4)nc3c2)c1)Nc1ccc(Cl)c(C(F)(F)F)c1` [Compound C022, 1-(4-chloro-3-(trifluoromethyl)phenyl)-3-(3-(3-(pyridin-3-yl)quinoxaline-6-carbonyl)phenyl)urea], the IC50 is 1000 to 5000 nM in the experiment with A375 cells, over 5000 nM in the experiment on A549 cells, under 100 nM on BRAF V600E and under 100 nM at KDR (VEGFR2). Besides, the values for the inhibition at 1 µM at BRAF, on BRAF V600E and on KDR (VEGFR2) were 70 to 89%, over 89% and over 89%, respectively.

For `O=C(Nc1cc(F)c(F)c(C(=O)c2ccc3nccnc3c2)c1)Nc1ccc(Cl)c(C(F)(F)F)c1` [Compound C023, 1-(4-chloro-3-(trifluoromethyl)phenyl)-3-(3,4-difluoro-5-(quinoxaline-6-carbonyl)phenyl)urea], the IC50 with A375 cells was under 1000 nM; in the experiment with A549 cells, under 2000 nM. For the same compound, the inhibition at 1 µM at BRAF was under 70%; on BRAF V600E it was 70 to 89%; at KDR (VEGFR2), 70 to 89%.

For `O=C(Nc1cc(F)cc(C(=O)c2ccc3nccnc3c2)c1)Nc1ccc(Cl)c(C(F)(F)F)c1` [Compound C026, 1-(4-chloro-3-(trifluoromethyl)phenyl)-3-(3-fluoro-5-(quinoxaline-6-carbonyl)phenyl)urea], the IC50 lay within 1000 to 5000 nM in the experiment with A375 cells and 2000 to 5000 nM in the experiment with A549 cells. The inhibition at 1 µM at BRAF was under 70%; on BRAF V600E it was 70 to 89%; at KDR (VEGFR2), 70 to 89%.

`Cn1cc(-c2cnc3ccc(C(=O)c4cccc(NC(=O)Nc5ccc(Cl)c(C(F)(F)F)c5)c4)cc3n2)cn1` [Compound C028, 1-(4-chloro-3-(trifluoromethyl)phenyl)-3-(3-(3-(1-methyl-1H-pyrazol-4-yl)quinoxaline-6-carbonyl)phenyl)urea]: the IC50 in the experiment with A375 cells is under 1000 nM; in the experiment with A549 cells, under 2000 nM; on BRAF V600E it was under 100 nM; on KDR (VEGFR2), under 100 nM. For the same compound, the inhibition at 1 µM is 70 to 89% at BRAF, over 89% at BRAF V600E and over 89% on KDR (VEGFR2).

Take `O=C(Nc1cccc(C(=O)c2ccc3ncc(-c4cn[nH]c4)nc3c2)c1)Nc1ccc(Cl)c(C(F)(F)F)c1` [Compound C029, 1-(3-(3-(1H-pyrazol-4-yl)quinoxaline-6-carbonyl)phenyl)-3-(4-chloro-3-(trifluoromethyl)phenyl)urea]: the IC50 in the experiment on A375 cells is 1000 to 5000 nM; with A549 cells it was 2000 to 5000 nM; at BRAF V600E it was under 100 nM; on KDR (VEGFR2) it was under 100 nM. The figures for the inhibition at 1 µM on BRAF, on BRAF V600E and at KDR (VEGFR2) were 70 to 89%, over 89% and over 89%, respectively.

With `O=C(Nc1ccc(F)c(C(=O)c2ccc3ncc(N4CCOCC4)nc3c2)c1)Nc1ccc(Cl)c(C(F)(F)F)c1` [Compound C030, 1-(4-chloro-3-(trifluoromethyl)phenyl)-3-(4-fluoro-3-(3-morpholinoquinoxaline-6-carbonyl)phenyl)urea], the IC50 in the experiment on A375 cells is under 1000 nM; with A549 cells, 2000 to 5000 nM; at BRAF V600E it was over 100 nM; on KDR (VEGFR2), under 100 nM. In addition, the results for the inhibition at 1 µM on BRAF, on BRAF V600E and at KDR (VEGFR2) were under 70%, 70 to 89% and over 89%, respectively.

Take `O=C(Nc1cc(F)cc(C(=O)c2ccc3ncc(N4CCOCC4)nc3c2)c1)Nc1ccc(Cl)c(C(F)(F)F)c1` [Compound C031, 1-(4-chloro-3-(trifluoromethyl)phenyl)-3-(3-fluoro-5-(3-morpholinoquinoxaline-6-carbonyl)phenyl)urea]: the IC50 is under 1000 nM in the experiment on A375 cells and 2000 to 5000 nM in the experiment with A549 cells. For the same compound, the results for the inhibition at 1 µM on BRAF, on BRAF V600E and at KDR (VEGFR2) were under 70%, 70 to 89% and 70 to 89%, respectively.

For the compound `O=C(Nc1cccc(F)c1)Nc1ccc(F)c(C(=O)c2ccc3ncc(N4CCOCC4)nc3c2)c1` [Compound C035, 1-(4-fluoro-3-(3-morpholinoquinoxaline-6-carbonyl)phenyl)-3-(3-fluorophenyl)urea], the IC50 in the experiment with A375 cells is under 1000 nM; in the experiment on A549 cells, 2000 to 5000 nM; at BRAF V600E, under 100 nM; at KDR (VEGFR2) it was under 100 nM. The inhibition at 1 µM on BRAF was 70 to 89%; on BRAF V600E, over 89%; at KDR (VEGFR2) it was 70 to 89%.

On to `O=C(Nc1cccc(C(F)(F)F)c1)Nc1ccc(F)c(C(=O)c2ccc3ncc(N4CCOCC4)nc3c2)c1` [Compound C036, 1-(4-fluoro-3-(3-morpholinoquinoxaline-6-carbonyl)phenyl)-3-(3-(trifluoromethyl)phenyl)urea], for which the IC50 is under 1000 nM in the experiment with A375 cells, under 2000 nM with A549 cells, under 100 nM on BRAF V600E and under 100 nM at KDR (VEGFR2). The inhibition at 1 µM is under 70% on BRAF, 70 to 89% on BRAF V600E and over 89% on KDR (VEGFR2).
